IC50 data for 29 compounds are collected here from US12344597B2, “Alkoxy-substituted pyridinyl derivatives as LPA1 receptor antagonists and their use in the treatment of fibrosis” (IDORSIA PHARMACEUTICALS LTD, priority 2018, dated 2025).

Structures can show the parent of a compound that is named as a salt.

In this test the target is human LPA1 receptor (Homo sapiens (Human), UniProt Q92633). Put plainly: Beta-arrestin recruitment assay to determine IC50 values for human LPAR1. The conditions noted are these: antagonist mode, Tango EDG2-bla U2OS cells, LPA 18:1 500 nM final. Format: cell-based. From the text: Beta-Arrestin Recruitment Assay to Determine IC50 Values for Human LPAR1
human LPA1 receptor, sequence (Q92633 whole entry, the tested form may be a part): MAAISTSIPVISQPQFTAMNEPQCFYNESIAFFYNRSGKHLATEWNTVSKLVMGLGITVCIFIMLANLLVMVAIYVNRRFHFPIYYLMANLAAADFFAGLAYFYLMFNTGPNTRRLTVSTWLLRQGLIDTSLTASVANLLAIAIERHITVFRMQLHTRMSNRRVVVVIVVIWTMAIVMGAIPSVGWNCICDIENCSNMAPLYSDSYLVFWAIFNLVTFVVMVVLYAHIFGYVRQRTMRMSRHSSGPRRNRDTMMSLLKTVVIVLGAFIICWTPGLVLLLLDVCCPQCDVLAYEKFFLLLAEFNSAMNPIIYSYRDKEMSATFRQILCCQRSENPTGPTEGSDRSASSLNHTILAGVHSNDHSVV
The Tango™ EDG2-bla U2OS cells are obtained from Invitrogen. These cells contain the human LPA1 receptor cDNA linked to a TEV protease site and a Gal4-VP16 transcription factor integrated into the Tango™ GPCR-bla U2OS parental cell line. This parental cell line stably expresses a beta-arrestin/TEV protease fusion protein and the beta-lactamase (bla) reporter gene under the control of a UAS response element. Upon LPA (agonist) binding, LPA1 receptor gets activated, leading to arrestin-protease recruitment and proteolytic release of the transcription factor: The transcription factor then regulates transcription of a beta-lactamase reporter construct, which is measured upon addition of the live-cell substrate.
10′000 Tango™ EDG2-bla U2OS cells are seeded in a 384-well black with clear bottom plate in 30 μl Freestyle 293 Expression Medium (Invitrogen) and incubated for 20 h at 37° C., 5% CO2. […] IC50 is the concentration of antagonist inhibiting 50% of the maximal response.
(In general: Arrestin recruitment assays detect the binding of arrestin to an activated receptor.)
Usually IC50 stands for the concentration that inhibits the measured activity by half. Higher therefore signals weaker potency in that assay. `Cc1ccc(NC(=O)C2(c3ccccc3C(C)C)CN(Cc3cnn(C)c3)C2)c(OC(F)F)n1` [Ex 11-23, N-(2-(difluoromethoxy)-6-methylpyridin-3-yl)-3-(2-isopropylphenyl)-1-((1-methyl-1H-pyrazol-4-yl)methyl)azetidine-3-carboxamide]: the IC50 was 775 nM.

Take `Cc1ccc(NC(=O)C2(c3ccccc3C(C)C)CCN(S(=O)(=O)CC(=O)O)CC2)c(OC(F)F)n1` [Ex 13-3, 2-((4-((2-(difluoromethoxy)-6-methylpyridin-3-yl)carbamoyl)-4-(2-isopropylphenyl)piperidin-1-yl)sulfonyl)acetic acid]: half-maximal inhibition (IC50) was put at 14 nM.

On to `CCOC(=O)Cc1coc(CN2CC(C(=O)Nc3ccc(C)nc3OC(F)F)(c3ccccc3C(C)C)C2)n1` [Ex 11-58, ethyl 2-(2-((3-((2-(difluoromethoxy)-6-methylpyridin-3-yl)carbamoyl)-3-(2-isopropylphenyl)azetidin-1-yl)methyl)oxazol-4-yl)acetate], for which the IC50 is 68 nM.

As to `Cc1ccc(NC(=O)C2(c3ccccc3C(C)C)CN(S(=O)(=O)/C=C/C(=O)O)C2)c(OC(F)F)n1` [Ex 13-21, (E)-3-((3-((2-(difluoromethoxy)-6-methylpyridin-3-yl)carbamoyl)-3-(2-isopropylphenyl)azetidin-1-yl)sulfonyl)acrylic acid], the 50% inhibitory concentration (IC50) is 14 nM.

Take `Cc1ccc(NC(=O)C2(c3ccccc3C3CC3)CN(C(=O)CC(C)(C)C(=O)O)C2)c(OC(F)F)n1` [Ex 31-1, 4-(3-(2-cyclopropylphenyl)-3-((2-(difluoromethoxy)-6-methylpyridin-3-yl)carbamoyl)azetidin-1-yl)-2,2-dimethyl-4-oxobutanoic acid]: the concentration for half-maximal inhibition (IC50) turned out to be 19 nM.

As to `Cc1ccc(NC(=O)C2(c3ccccc3C(C)C)CN(C#N)C2)c(OC(F)F)n1` [Ex 11-6, 1-cyano-N-(2-(difluoromethoxy)-6-methylpyridin-3-yl)-3-(2-isopropylphenyl)azetidine-3-carboxamide], inhibition was half-maximal at 11 nM (IC50). This IC50 lies about 1.7-fold lower than the previous one.

Compound `Cc1ccc(NC(=O)C2(c3nccnc3C(C)C)CN(S(N)(=O)=O)C2)c(OC(F)F)n1` [Ex 69, N-(2-(difluoromethoxy)-6-methylpyridin-3-yl)-3-(3-isopropylpyrazin-2-yl)-1-sulfamoylazetidine-3-carboxamide] registered an IC50 of 27 nM.

Compound `CC(C)c1ccccc1C1(C(=O)Nc2cc(F)cnc2OC(F)F)CNC1` [Ex 8, N-(2-(difluoromethoxy)-5-fluoropyridin-3-yl)-3-(2-isopropylphenyl)azetidine-3-carboxamide] displayed an IC50 of 338 nM.

Turning to `CC(C)c1ccccc1C1(C(=O)Nc2ncc(Br)cc2OC(F)F)CN(C(=O)NC2CC2)C1` [Ex 82-2, N3-(5-bromo-3-(difluoromethoxy)pyridin-2-yl)-N1-cyclopropyl-3-(2-isopropylphenyl)azetidine-1,3-dicarboxamide], the IC50 came to 3 nM.

As for `COC(=O)C1(CN2CC(C(=O)Nc3ccc(C)nc3OC(F)F)(c3ccccc3C(C)C)C2)CC1` [Ex 11-26, methyl 1-((3-((2-(difluoromethoxy)-6-methylpyridin-3-yl)carbamoyl)-3-(2-isopropylphenyl)azetidin-1-yl)methyl)cyclopropane-1-carboxylate], 400 nM corresponded to half-maximal inhibition (IC50). This IC50 is about 130-fold higher than that of the compound before.

As to `CCOC(=O)c1cnc(N2CC(C(=O)Nc3ccc(C)nc3OC(F)F)(c3ccccc3C(C)C)C2)o1` [Ex 18-31, ethyl 2-(3-((2-(difluoromethoxy)-6-methylpyridin-3-yl)carbamoyl)-3-(2-isopropylphenyl)azetidin-1-yl)oxazole-5-carboxylate], inhibition was half-maximal at 20 nM (IC50). Against the preceding compound, the IC50 is about 20-fold lower.

With `CCOC(=O)C(C)(C)NC(=O)N1CC(C(=O)Nc2ccc(C)nc2OC(F)F)(c2ccccc2C(C)C)C1` [Ex 17-12, ethyl 2-(3-((2-(difluoromethoxy)-6-methylpyridin-3-yl)carbamoyl)-3-(2-isopropylphenyl)azetidine-1-carboxamido)-2-methylpropanoate], the IC50 was 11 nM.

In turn, `Cc1ccc(NC(=O)C2(c3ccccc3C(C)C)CN(Cc3cccc(C(=O)O)n3)C2)c(OC(F)F)n1` [Ex 11-46, 6-((3-((2-(difluoromethoxy)-6-methylpyridin-3-yl)carbamoyl)-3-(2-isopropylphenyl)azetidin-1-yl)methyl)picolinic acid] came in with an IC50 of 17 nM.

As for `Cc1ccc(NC(=O)C2(c3ccccc3C3CC3)CNC2)c(OC(F)F)n1` [Ex 23, 3-(2-cyclopropylphenyl)-N-(2-(difluoromethoxy)-6-methylpyridin-3-yl)azetidine-3-carboxamide], the IC50 stood at 664 nM.

`Cc1ccc(NC(=O)C2(c3ccccc3C(C)C)CN(S(=O)(=O)NC(C)C)C2)c(OC(F)F)n1` [Ex 15-12, N-(2-(difluoromethoxy)-6-methylpyridin-3-yl)-3-(2-isopropylphenyl)-1-(N-isopropylsulfamoyl)azetidine-3-carboxamide] showed an IC50 of 25 nM.

`Cc1ccc(NC(=O)C2(c3ccccc3C(C)C)CN(C(=O)CCC(=O)O)C2)c(OC(C)C)n1` [Ex 12-68, 4-(3-((2-isopropoxy-6-methylpyridin-3-yl)carbamoyl)-3-(2-isopropylphenyl)azetidin-1-yl)-4-oxobutanoic acid] registered a 50% inhibitory concentration (IC50) of 33 nM. This IC50 and that of the compound before are within 1.5-fold of each other.

`Cc1ccc(NC(=O)C2(c3ccccc3C3CCCC3)CN(C(=O)CC(C)(C)C(=O)O)C2)c(OC(F)F)n1` [Ex 31-3, 4-(3-(2-cyclopentylphenyl)-3-((2-(difluoromethoxy)-6-methylpyridin-3-yl)carbamoyl)azetidin-1-yl)-2,2-dimethyl-4-oxobutanoic acid] displayed an IC50 of 5 nM.

Take `Cc1ccc(NC(=O)C2(c3ccccc3C(C)C)CN(C(=O)NCC(C)(C)C(=O)O)C2)c(OC(F)F)n1` [Ex 17-17, 3-(3-((2-(difluoromethoxy)-6-methylpyridin-3-yl)carbamoyl)-3-(2-isopropylphenyl)azetidine-1-carboxamido)-2,2-dimethylpropanoic acid]: the IC50 was 12 nM.

`Cc1ccc(NC(=O)C2(c3ccccc3C(C)C)CN(C(=O)NCC3(C(=O)O)CC3)C2)c(OC(F)F)n1` [Ex 17-15, 1-((3-((2-(difluoromethoxy)-6-methylpyridin-3-yl)carbamoyl)-3-(2-isopropylphenyl)azetidine-1-carboxamido)methyl)cyclopropane-1-carboxylic acid] yielded an IC50 of 16 nM.

For the compound `Cc1ccc(NC(=O)C2(c3ccccc3C(C)C)CN(C(=O)C(F)(F)CC(=O)O)C2)c(OC(F)F)n1` [Ex 12-115, 4-(3-((2-(difluoromethoxy)-6-methylpyridin-3-yl)carbamoyl)-3-(2-isopropylphenyl)azetidin-1-yl)-3,3-difluoro-4-oxobutanoic acid], the IC50 came out at 7 nM. This IC50 lies about 2.3-fold lower than the previous one.

Compound `Cc1ccc(NC(=O)C2(c3ncccc3C(C)C)CN(c3nc(C)ccc3F)C2)c(OC(F)F)n1` [Ex 65, N-(2-(difluoromethoxy)-6-methylpyridin-3-yl)-1-(3-fluoro-6-methylpyridin-2-yl)-3-(3-isopropylpyridin-2-yl)azetidine-3-carboxamide] displayed a 50% inhibitory concentration (IC50) of 37 nM.

`COc1ccc(NC(=O)C2(c3ccccc3C(C)C)CN(S(N)(=O)=O)C2)c(OC)n1` [Ex 15-7, N-(2,6-dimethoxypyridin-3-yl)-3-(2-isopropylphenyl)-1-sulfamoylazetidine-3-carboxamide] came in with an IC50 of 4 nM.

On to `Cc1ccc(NC(=O)C2(c3ccccc3C(C)C)CN(C(=O)c3nnn[nH]3)C2)c(OC(F)F)n1` [Ex 12-18, N-(2-(difluoromethoxy)-6-methylpyridin-3-yl)-3-(2-isopropylphenyl)-1-(1H-tetrazole-5-carbonyl)azetidine-3-carboxamide], for which the concentration for half-maximal inhibition (IC50) is 25 nM.

Compound “N-(6-ethoxy-2-methoxypyridin-3-yl)-3-(2-isopropylphenyl)azetidine-3-carboxamide [Ex 9]” gave an IC50 of 163 nM.

`COc1ccc(NC(=O)C2(c3ccccc3C(C)C)CNC2)c(OC)n1` [Ex 6, N-(2,6-dimethoxypyridin-3-yl)-3-(2-isopropylphenyl)azetidine-3-carboxamide hydrochloride] gave an IC50 of 84 nM. This IC50 lies about 1.9-fold lower than the previous one.

In turn, `COc1ccc(NC(=O)C2(c3ccccc3C(C)C)CN(C(=O)CC(C)(C)C(=O)O)C2)c(OC)n1` [Ex 12-86, 4-(3-((2,6-dimethoxypyridin-3-yl)carbamoyl)-3-(2-isopropylphenyl)azetidin-1-yl)-2,2-dimethyl-4-oxobutanoic acid] had an IC50 of 27 nM.

Regarding `CCOC(=O)c1cc(CN2CC(C(=O)Nc3ccc(C)nc3OC(F)F)(c3ccccc3C(C)C)C2)on1` [Ex 11-34, ethyl 5-((3-((2-(difluoromethoxy)-6-methylpyridin-3-yl)carbamoyl)-3-(2-isopropylphenyl)azetidin-1-yl)methyl)isoxazole-3-carboxylate], the half-maximal inhibitory concentration (IC50) came out at 79 nM.

`Cc1ccc(NC(=O)C2(c3c(C)cccc3C(C)C)CN(C(=O)CC(C)(C)C(=O)O)C2)c(OC(F)F)n1` [Ex 39-1, 4-(3-((2-(difluoromethoxy)-6-methylpyridin-3-yl)carbamoyl)-3-(2-isopropyl-6-methylphenyl)azetidin-1-yl)-2,2-dimethyl-4-oxobutanoic acid]: the IC50 is 51 nM.

In turn, `Cc1ccc(NC(=O)C2(c3ccccc3C(C)C)CCN(C(=O)CCC(=O)C(F)(F)F)CC2)c(OC(F)F)n1` [Ex 12-12, N-(2-(difluoromethoxy)-6-methylpyridin-3-yl)-4-(2-isopropylphenyl)-1-(5,5,5-trifluoro-4-oxopentanoyl)piperidine-4-carboxamide] showed a half-inhibitory concentration (IC50) of 7 nM.
